Drawing on ChEMBL document CHEMBL1139623, “4,5-Disubstituted cis-pyrrolidinones as inhibitors of type II 17beta-hydroxysteroid dehydrogenase. Part 2. SAR” (Bioorg Med Chem Lett, 2005), this text covers IC50 for 62 compounds.

The test deals with T1, 17-beta-hydroxysteroid dehydrogenase type 2 (Homo sapiens, UniProt P37059).
T1 sequence (P37059 whole entry): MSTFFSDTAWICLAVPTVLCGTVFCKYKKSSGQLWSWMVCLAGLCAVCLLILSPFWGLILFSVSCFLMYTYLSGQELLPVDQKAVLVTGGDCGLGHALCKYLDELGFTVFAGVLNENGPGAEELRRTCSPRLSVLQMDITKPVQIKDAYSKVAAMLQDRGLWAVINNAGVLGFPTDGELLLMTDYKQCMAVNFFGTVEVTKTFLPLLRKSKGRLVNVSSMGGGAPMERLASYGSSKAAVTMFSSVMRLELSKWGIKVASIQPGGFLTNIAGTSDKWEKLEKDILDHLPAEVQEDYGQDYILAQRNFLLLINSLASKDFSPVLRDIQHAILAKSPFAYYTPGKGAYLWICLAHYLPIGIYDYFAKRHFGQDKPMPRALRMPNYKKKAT
The experiment in a line: Inhibitory concentration against 17 beta hydroxysteroid dehydrogenase type 2 (type II 17-beta-HSD II).
On to `Cc1ccc(C#C[C@H](O)[C@H]2[C@@H](c3ccccc3)CC(=O)N2C)cc1`, for which half-maximal inhibition (IC50) was put at 0.8 µM.

As for `CN1C(=O)C[C@H](c2ccccc2)[C@@H]1[C@@H](O)c1csc2ccccc12`, inhibition was half-maximal at 2.66 µM (IC50).

`CN1C(=O)C[C@H](c2ccccc2)[C@@H]1[C@@H](O)c1ccc(Br)o1` yielded an IC50 of 1.27 µM. The compound `CN1C(=O)C[C@H](c2ccccc2)[C@@H]1[C@@H](O)C#Cc1ccccc1Cl` displayed an IC50 of 0.3 µM. With `CO[C@@H](c1cccc(Cl)c1)[C@H]1[C@@H](c2ccccc2)CC(=O)N1C` the figure was 0.9 µM; with `CN1C(=O)C[C@H](c2ccccc2)[C@@H]1[C@@H](O)C#Cc1ccccc1`, 0.43 µM. For the compound `Cc1ccc([C@H](O)[C@H]2[C@@H](c3ccccc3)CC(=O)N2C)s1`, half-maximal inhibition (IC50) was put at 0.56 µM.

`O=C1C[C@H](c2ccccc2)[C@H]([C@@H](O)c2cccs2)N1` registered an IC50 greater than 10 µM. Regarding `CN1C(=O)C[C@H](c2ccccc2)[C@@H]1[C@@H](OCCO)c1cccs1`, the IC50 was greater than 10 µM.

Regarding `CN1C(=O)C[C@H](c2ccccc2)[C@@H]1[C@@H](O)c1ccc(Br)s1`, the IC50 was 1.2 µM. In the case of `CN1C(=O)C[C@H](c2ccccc2)[C@@H]1[C@@H](O)c1ccc2c(c1)OCO2`, the IC50 came out at 0.96 µM. For `CNc1ccc([C@H]2CC(=O)N(C)[C@H]2[C@@H](O)c2ccc(-c3ccccc3)s2)cc1` the value was 1.67 µM.

`CN1C(=O)C[C@H](c2ccc(NS(C)(=O)=O)cc2)[C@@H]1[C@@H](O)c1ccc(-c2ccccc2)s1` gave an IC50 greater than 10 µM. Turning to `CC(=O)Nc1ccc([C@H]2CC(=O)N(C)[C@H]2[C@@H](O)c2ccc(-c3ccccc3)s2)cc1`, the IC50 is greater than 10 µM. `CN1C(=O)C[C@H](c2ccccc2)[C@@H]1[C@@H](O)c1cccc(Cl)c1` registered a half-inhibitory concentration (IC50) of 0.7 µM.

Regarding `CN1C(=O)C[C@H](c2ccccc2)[C@@H]1Cc1cccc(Cl)c1`, the IC50 was determined as 2.18 µM. The compound `CN1C(=O)C[C@H](c2ccccc2)[C@@H]1[C@@H](O)C#Cc1ccccn1` gave an IC50 of 1.5 µM.

Take `CN1C(=O)C[C@H](c2ccccc2)[C@@H]1C(F)c1cccs1` (some centres not stated): the IC50 was 2.98 µM. For `CN1C(=O)C[C@H](c2ccccc2)[C@@H]1[C@@H](O)c1ccco1` the value was 3.18 µM; for `CN1C(=O)C[C@H](c2ccccc2)[C@@H]1[C@@H](O)c1cc2ccccc2[nH]1`, greater than 10 µM. For `CN1C(=O)C[C@H](c2ccccc2)[C@@H]1[C@@H](O)c1ccc(Cl)cc1` the value was 1.96 µM. `Cc1ccc([C@H](O)[C@H]2[C@@H](c3ccccc3)CC(=O)N2C)cc1` registered an IC50 of 1.82 µM. For the compound `CN1C(=O)C[C@H](c2ccccc2)[C@@H]1[C@@H](O)c1ccc(Cl)c(Cl)c1`, half-maximal inhibition (IC50) was put at 0.44 µM.

In the case of `CN1C(=O)C[C@H](c2ccccc2)[C@@H]1[C@@H](O)c1ccc(-c2ccccc2)o1`, inhibition was half-maximal at 3.24 µM (IC50). On to `COc1ccc([C@H](O)[C@H]2[C@@H](c3ccccc3)CC(=O)N2C)cc1`, for which the IC50 came to 1.23 µM. In turn, `CN1C(=O)C[C@H](c2ccccc2)[C@@H]1[C@@H](O)c1cccc(-c2ccccc2)c1` came in with an IC50 of 0.42 µM. Compound `CN1C(=O)C[C@H](c2ccccc2)[C@@H]1[C@@H](O)c1coc2ccccc12` came in with a half-maximal inhibitory concentration (IC50) of 1.16 µM. `CN1C(=O)C[C@H](c2ccccc2)[C@@H]1[C@@H](O)c1cccc(C(F)(F)F)c1` returned an IC50 of 0.88 µM. With `COc1cccc([C@H](O)[C@H]2[C@@H](c3ccccc3)CC(=O)N2C)c1` the figure was 0.81 µM; with `CN1C(=O)C[C@H](c2ccccc2)[C@@H]1[C@@H](O)C#Cc1cccc(O)c1`, 1.76 µM.

The compound `CN1C(=O)C[C@H](c2ccccc2)[C@@H]1[C@@H](O)c1ccc(-c2ccccc2)s1` gave an IC50 of 0.1 µM. For `CN1C(=O)C[C@H](c2ccccc2)[C@@H]1[C@@H](O)c1cccs1` the value was 0.4 µM; for `CN1C(=O)C[C@H](c2ccc([N+](=O)[O-])cc2)[C@@H]1[C@@H](O)c1ccc(-c2ccccc2)s1`, greater than 10 µM. For `CN1C(=O)C[C@H](c2ccccc2)[C@@H]1[C@@H](O)c1cc2ccccc2s1` the value was 0.59 µM. The compound `CN1C(=O)C[C@H](c2ccc(O)cc2)[C@@H]1[C@@H](O)c1ccc(-c2ccccc2)s1` returned an IC50 of 0.22 µM. With `CN1C(=O)C[C@H](c2ccccc2)[C@@H]1C(=O)c1cccc(Cl)c1` the figure was greater than 10 µM; with `CC(=O)O[C@@H](c1cccs1)[C@H]1[C@@H](c2ccccc2)CC(=O)N1C`, 1.37 µM. With `CN1CC[C@H](c2ccccc2)[C@@H]1[C@@H](O)c1cccs1` the figure was greater than 10 µM. For `CN1C(=O)C[C@H](c2ccccc2)[C@@H]1[C@@H](O)CCc1ccccc1` the value was 1.83 µM; for `CN1C(=S)C[C@H](c2ccccc2)[C@@H]1[C@@H](O)c1cccs1`, greater than 10 µM; for `CN1C(=O)C[C@H](c2ccccc2)[C@@H]1C(=O)c1cccs1`, greater than 10 µM. As to `CN1C(=O)C[C@H](c2ccccc2)[C@@H]1[C@@H](O)c1ccc(-c2ccccc2)cc1`, inhibition was half-maximal at 1.02 µM (IC50). In the case of `CN1C(=O)C[C@H](c2ccccc2)[C@@H]1[C@@H](O)C#Cc1ccc(F)cc1`, the IC50 stood at 0.48 µM.

Consider `CN1C(=O)C[C@H](c2ccccc2)[C@@H]1[C@@H](O)c1ccc(-c2ccc(F)cc2)cc1`, for which half-maximal inhibition (IC50) required 1.26 µM. With `CN1C(=O)C[C@H](c2ccccc2)[C@@H]1[C@@H](O)CCc1ccc(F)cc1` the figure was 1.53 µM; with `CN1C(=O)C[C@H](c2ccccc2)[C@@H]1[C@H](O)c1cccc(Cl)c1`, greater than 10 µM; with `COc1ccc([C@H]2CC(=O)N(C)[C@H]2[C@@H](O)c2ccc(-c3ccccc3)s2)cc1`, 0.89 µM. For `CO[C@@H](c1cccs1)[C@H]1[C@@H](c2ccccc2)CC(=O)N1C` the value was 3.91 µM. Compound `CN1C(=O)C[C@H](c2ccccc2)[C@@H]1[C@@H](O)C#Cc1cccc(N)c1` showed an IC50 of 0.37 µM.

`CN1C(=O)C[C@H](c2ccc(N)cc2)[C@@H]1[C@@H](O)c1ccc(-c2ccccc2)s1`: the IC50 was determined as 0.19 µM. Take `Cc1cccc([C@H](O)[C@H]2[C@@H](c3ccccc3)CC(=O)N2C)c1`: it took 1.52 µM to reach half-maximal inhibition (IC50). Take `CN1C(=O)C[C@H](c2ccccc2)[C@@H]1[C@@H](O)Cc1cccc(Cl)c1`: the IC50 amounted to 2.39 µM. In turn, `CN1C(=O)C[C@H](c2ccccc2)[C@@H]1[C@@H](O)C(C)(C)C` displayed an IC50 greater than 10 µM. Take `CN1C(=O)C[C@H](c2ccccc2)[C@@H]1[C@@H](O)c1ccccc1`: the IC50 stood at 5 µM. With `CN1C(=O)C[C@H](c2ccccc2)[C@@H]1[C@@H](O)c1cccc(-c2ccc(F)cc2)c1` the figure was 2.78 µM; with `CN(C)c1ccc([C@H]2CC(=O)N(C)[C@H]2[C@@H](O)c2ccc(-c3ccccc3)s2)cc1`, 2.43 µM. With `O=C1C[C@H](c2ccccc2)[C@H]([C@@H](O)c2cccs2)N1Cc1ccccc1` the figure was 4.18 µM; with `CN(C)c1ccc([C@H](O)[C@H]2[C@@H](c3ccccc3)CC(=O)N2C)cc1`, 1.65 µM.

With `CN1C(=O)C[C@H](c2ccccc2)[C@@H]1[C@@H](O)/C=C/c1ccc(F)cc1`, the IC50 was 1.4 µM.

As for `CN1C(=O)C[C@H](c2ccccc2)[C@@H]1[C@@H](O)C#Cc1ccccc1F`, the IC50 turned out to be 0.32 µM. On to `CN1C(=O)C[C@H](c2ccccc2)[C@@H]1[C@@H](O)c1ccc(-c2ccc(O)cc2)cc1`, for which the IC50 came out at 1.13 µM. With `COc1cccc(C#C[C@H](O)[C@H]2[C@@H](c3ccccc3)CC(=O)N2C)c1` the figure was 1.09 µM.
